Measurements as given in paper PMC5104769, “Concentration-Dependent Dual Mode of Zn Action at Serotonin 5-HT1A Receptors: In Vitro and In Vivo Studies” (Molecular neurobiology, 2015).

Experiments:
Sprague Dawley rats [1] = assay: 5-HT behavioural syndrome (flat body posture, forepaw treading) in rats; type: in vivo, rat; conditions: for behavioural score FBP (A) VEH / behavioural score FT (A) VEH: max score 10
Experimental: (§1) The experiments were performed on male Albino Swiss mice (23–25 g) and Sprague Dawley rats (200–250 g) from Charles River, Germany as well as TPH2-Cre-ER^T2 x flx-5-HT1A-flx-YFP mice from Jackson Labs, Bangor ME and the Hen lab, respectively. The animals were kept under standard laboratory conditions with respect to lighting (light phase 7:00–19:00) and temperature (19–21 °C). Food and water were freely available. Each experimental group consisted of eight to ten animals. All of the animals were experimentally naive and were used only once in each test. The experiments were performed during the light period (9:00–14:00 h). All of the procedures were conducted according to the guidelines of the National Institutes of Health Animal Care and Use Committee and were approved by the Ethics Committees of the Institute of Pharmacology, Polish Academy of Sciences in Krakow and the Animal Care Committee, University of Ottawa.
Zn (all doses refer to mg Zn/kg) was given as either Zn hydroaspartate (Farmapol, Poland) or Zn chloride (Sigma-Aldrich) and was dissolved in 0.9 % NaCl and administered intraperitoneally (i.p.). 8-OH-DPAT and WAY-100635 were dissolved in aqua pro-injection and were administered subcutaneously (s.c.). Controls were treated with the appropriate diluent, which was indicated as VEH on the graphs and in the tables.
The experiments were conducted according to previously published procedure, with a modification to the ranked intensity scale. Briefly, the rats were individually placed in cages (30×25×25 cm) 5 min before tested compounds were injected. Forepaw treading (FT) and flat body posture (FBP) were scored using a ranked intensity scale, where 0=absent, 1=equivocal and 2=present. The Zn (2, 5, 7.5 and 11.5 mg Zn/kg, given as a Zn hydroaspartate)-induced behavioural syndrome was scored for each animal 3, 6, 9, 12 and 15 min after the Zn treatment. Each observation session lasted for 45 s. The maximum score, which was summed over 5 observation periods, was 10 for each symptom/rat. The effect of Zn on the behavioural syndrome induced by 8-OH-DPAT (5 mg/kg) was scored using the same scale. Zn was administered 60 min before 8-OH-DPAT, and the animals were scored 3, 6, 9, 12 and 15 min after the 8-OH-DPAT treatment.

[2] = test system: 5-HT1A autoreceptor KO mice; assay: Forced swim test (FST) in wild-type and 5-HT1A autoreceptor KO mice; type: in vivo, mouse; conditions: Zn 5 mg/kg 30 min before FST
Excerpt: (§2) A conditional knockout approach was used to eliminate the 5-HT1AR in the raphe nuclei in adult mice. To create the conditional 5-HT1AR knockout mice, a TPH2-Cre-ER^T2 mouse line was crossed with a flx-5-HT1A-YFP mouse line. The TPH2-Cre-ER^T2 confers specificity such that only serotonin neurons, which express tryptophan hydroxylase 2 (TPH2), can express Cre recombinase to knockout the 5-HT1AR gene and allow for […] expression. Once the mice reached adulthood (approximately 5–6 postnatal weeks), tamoxifen (180 mg/kg) was injected i.p. every day for five consecutive days (the tamoxifen binds to the ER^T2 domain and enables Cre to enter the nucleus where it can excise the 5-HT1AR gene, allowing for YFP expression as a marker of recombination). The mice were then left undisturbed for at least 14 days to allow for recombination and the turnover of endogenous 5-HT1ARs.
The behaviour of the mice in the water was recorded using a video camera. The test was performed under red lighting. The cylinder was filled with almost 4 l of water, to a depth that exceeded the distance to which the tail could extend, so the mouse could not balance on its tail at the bottom of the cylinder. […] The mice were placed in the individual glass cylinder (22 cm diameter×37 cm high) for a standard 6-min test; however, the total duration of immobility from the last 4 min of the test was analysed. […]

Body temperature in rats = type: in vivo, rat; conditions: Zn: 30 min at 7.5 and 11.5 mg/kg, 60 min at 5, 7.5 and 11.5 mg/kg
Experimental: as §1, with “Ottawa. […]” for “Ottawa.”
The effects of Zn (2, 5, 7.5 and 11.5 mg Zn/kg for rats and 2 and 5 mg/kg for mice, given as a Zn hydroaspartate), 8-OH-DPAT (5 mg/kg) and WAY-100635 (0.1mg/kg) on rectal body temperature were recorded 30 and 60 min after their acute administration. The results were expressed as a change in body temperature with respect to the basal body temperature, which was measured at the beginning of the experiments.

β2 adrenergic receptors = test system: β2 adrenergic receptors; parameters: method as in PMID 11752207; conditions: cited from earlier work
Sprague Dawley rats [3] = assay: Forced swim test (FST) in rats; type: in vivo, rat
Experimental: The test was carried out according to the method described previously [10]. On day one of the experiment, the animals were individually placed in plexiglass cylinders (40 cm in height, 18 cm in diameter), containing 25 cm of water maintained at 24–25 °C for a 15-min habituation period. After the rats were removed from the water, they were again placed in their home cages. On the second day, the rats were again placed in the cylinders, and the total duration of immobility was measured for a 5-min test period. Zn (1 or 2 mg Zn/ kg, given as Zn hydroaspartate) and 8-OH-DPAT (0.1 or 0.3 mg/kg) were administered alone or jointly 30 min before the test. WAY-100635 (0.1 mg/kg) was administered 15 min before the Zn treatment.

[4] = Body temperature in wild-type and 5-HT1A autoreceptor KO mice; type: in vivo, mouse; conditions: Zn 5 mg/kg (Zn chloride), 30 and 60 min
Excerpt: as §2
A separate experiment was performed to measure the effect of Zn on rectal body temperature in wild-type and 5-HT1A autoreceptor KO mice; however, in this experiment, only the higher dose of Zn (5 mg Zn/kg; Zn chloride, Sigma) was used.

[5] = Zn 2 mg/kg 60 min before 8-OH-DPAT 5 mg/kg
[6] = Zn 5 mg/kg 60 min before 8-OH-DPAT 5 mg/kg
[7] = Zn 7.5 mg/kg 60 min before 8-OH-DPAT 5 mg/kg
[8] = Zn 11.5 mg/kg 60 min before 8-OH-DPAT 5 mg/kg

## [Zn+2] [Zn, Zinc]
Sprague Dawley rats [1]; FBP at 11.5 mg/kg, FT at 7.5 and 11.5 mg/kg Zn
  effect on 8-OH-DPAT-induced FBP and FT (in words): blocked the 8-OH-DPAT-induced FBP and FT
Sprague Dawley rats [1]; [5]
  behavioural score FBP (B) 8-OH-DPAT: 7.7±0.3
  behavioural score FT (B) 8-OH-DPAT: 7.1±0.6
Sprague Dawley rats [1]; Zn 2 mg/kg alone
  behavioural score FBP (A) VEH: 0.2±0.2
  behavioural score FT (A) VEH: 0.3±0.2
Sprague Dawley rats [1]; [6]
  behavioural score FBP (B) 8-OH-DPAT: 7.5±0.8
  behavioural score FT (B) 8-OH-DPAT: 7.5±0.5
Sprague Dawley rats [1]; Zn 5 mg/kg alone
  behavioural score FBP (A) VEH: 0.3±0.3
  behavioural score FT (A) VEH: 0.2±0.2
Sprague Dawley rats [1]; [7]
  behavioural score FBP (B) 8-OH-DPAT: 7.0±0.3
  behavioural score FT (B) 8-OH-DPAT: 5.0±0.6
Sprague Dawley rats [1]; Zn 7.5 mg/kg alone
  behavioural score FBP (A) VEH: 0.5±0.5
  behavioural score FT (A) VEH: 0.2±0.2
Sprague Dawley rats [1]; [8]
  behavioural score FBP (B) 8-OH-DPAT: 3.4±0.6
  behavioural score FT (B) 8-OH-DPAT: 0.4±0.2
Sprague Dawley rats [1]; Zn 11.5 mg/kg alone
  behavioural score FBP (A) VEH: 0.5±0.2
  behavioural score FT (A) VEH: 0.2±0.2
Sprague Dawley rats [1]; Zn 2, 5, 7.5 and 11.5 mg/kg alone
  induction of FBP or FT (in words): did not induce FBP or FT
[2]; 5-HT1A autoreceptor KO mice, vs VEH-treated KO mice
  decrease in the immobility time: 30%
[2]; wild-type mice
  immobility time in the FST: significant decrease in immobility time
Body temperature in rats
  change in body temperature: significantly decreased the body temperature
β2 adrenergic receptors; 5 μM of Zn
  effect on agonist affinity: enhanced agonist affinity
β2 adrenergic receptors; 500 μM of Zn
  effect on antagonist binding: inhibited antagonist binding
Sprague Dawley rats [3]; Zn 1 mg/kg, 30 min before test (Fig. 5a)
  immobility time in the FST: not 1 mg/kg significantly decreased the immobility time
Sprague Dawley rats [3]; Zn 2 mg/kg, 30 min before test (Fig. 5a)
  immobility time in the FST: significantly decreased the immobility time
Sprague Dawley rats [3]; Zn 2 and 5 mg/kg (Fig. 5b)
  immobility time in the FST: significantly decreased the immobility time
Sprague Dawley rats [3]; Zn given jointly with 8-OH-DPAT at doses ineffective alone, vs VEH
  immobility time in the FST: significantly decreased the immobility time
[4]
  change in body temperature: decreased the body temperature of the wild-type mice
